Where a name gives a salt, the structure may show the parent alone.
Assays:
HEp#2 = assay: enhancement of antioncotic effect of chemotherapeutics by LK 2 (Experiment C-1, Table V); type: cell-based, human; details: ACNU 1.0×10^-6, 5-FU 1.5×10^-8, ADM 1.0×10^-10, MMC 2.5×10^-9 g/ml culture, VCR 1.5×10^-10 g/culture
Description: (§1) One human malignant tumor cell suspension (10^6 cells) was inoculated on 1 ml of conventional-type nutrient culture medium supplemented with foetal calf serum, and then cultured for one day. Thereafter, there was added to the culture 0.1 ml of saline containing 100 units of an LK 2 specimen, prepared by the method in Experiment A-3, and/or a chemotherapeutic, and cultured for an additional two days at 37° C.
(§2) As the control, an LK 2- and chemotherapeutic-free saline was used.
(§3) After completion of the culture, the number of viable cells was counted in accordance with the method in Experiment B-1, and the growth inhibition (%) was then determined.
(§4) The concentrations of the tested chemotherapeutics were as follows: nimustine hydrochloride (ACNU), 1.0×10^-6 g/ml culture; fluorouracil (5-FU), 1.5×10^-8 g/ml culture; doxorubicin (ADM), 1.0×10^-10 g/ml culture; mitomycin C (MMC), 2.5×10^-9 g/ml culture; and vincristine sulfate (VCR), 1.5×10^-10 g/culture.

HLE = assay: as above; type: cell-based, human; details: ACNU 1.0×10^-6, 5-FU 1.5×10^-8, ADM 1.0×10^-10, MMC 2.5×10^-9 g/ml culture, VCR 1.5×10^-10 g/culture
Description: as §1, §2, §3, §4

HeLa = assay: as above; type: cell-based, human; details: ACNU 1.0×10^-6, 5-FU 1.5×10^-8, ADM 1.0×10^-10, MMC 2.5×10^-9 g/ml culture, VCR 1.5×10^-10 g/culture
Description: as §1, §2, §3, §4

MKN 7 = assay: as above; type: cell-based, human; details: ACNU 1.0×10^-6, 5-FU 1.5×10^-8, ADM 1.0×10^-10, MMC 2.5×10^-9 g/ml culture, VCR 1.5×10^-10 g/culture
Description: as §1, §2, §3, §4

PC-8 = assay: as above; type: cell-based, human; details: ACNU 1.0×10^-6, 5-FU 1.5×10^-8, ADM 1.0×10^-10, MMC 2.5×10^-9 g/ml culture, VCR 1.5×10^-10 g/culture
Description: as §1, §2, §3, §4

[1] = tested on: human breast cancer tissue; assay: tumor mass in nude mice, LK 2 and/or mitomycin C (Experiment C-2, Table VI); type: in vivo, human tissue in BALB/c nude mice; details: MMC 1 mg/kg per day i.v., twenty days; control 10.8 ± 1.0; * significant vs control (5%)
Description: A group of BALB/c nude mice was transplanted subcutaneously in their dorsum areas with small fragments of human breast cancer tissue.
After the tumor masses grew to about 200 mm^3 in the bodies of the animals, saline containing an LK 2 preparation, obtained by the method described in Experiment A-3, and/or mitomycin C (MMC) was injected intravenously once every day for twenty days.
Thereafter, the animals were sacrificed, and the resultant tumor masses were weighed.
as §2

Structure (SMILES)	growth inhibition (%) to tumor cell (HEp#2; +, with LK 2 100 units) [%]	growth inhibition (%) to tumor cell (HEp#2; -, without LK 2) [%]	growth inhibition (%) to tumor cell (HLE; +, with LK 2 100 units) [%]	growth inhibition (%) to tumor cell (HLE; -, without LK 2) [%]	growth inhibition (%) to tumor cell (HeLa; +, with LK 2 100 units) [%]	growth inhibition (%) to tumor cell (HeLa; -, without LK 2) [%]	growth inhibition (%) to tumor cell (MKN 7; +, with LK 2 100 units) [%]	growth inhibition (%) to tumor cell (MKN 7; -, without LK 2) [%]	growth inhibition (%) to tumor cell (PC-8; +, with LK 2 100 units) [%]	growth inhibition (%) to tumor cell (PC-8; -, without LK 2) [%]	Tumor mass [1] [g]
CC[C@]1(O)C[C@H]2CN(CCc3c([nH]c4ccccc34)[C@@](C(=O)OC)(c3cc4c(cc3OC)N(C=O)[C@H]3[C@@](O)(C(=O)OC)[C@H](OC(C)=O)[C@]5(CC)C=CCN6CC[C@]43[C@@H]65)C2)C1 (stereo in doubt) [VCR, vincristine sulfate]	66	5	69	10	63	10	70	6	72	8	–
O=c1[nH]cc(F)c(=O)[nH]1 [5-FU, fluorouracil]	80	8	81	8	69	12	77	6	85	10	–
Cc1ncc(CNC(=O)N(CCCl)N=O)c(N)n1 [ACNU, nimustine hydrochloride]	67	4	75	5	71	5	73	4	71	2	–
COc1cccc2c1C(=O)c1c(O)c3c(c(O)c1C2=O)C[C@@](O)(C(=O)CO)C[C@@H]3O[C@H]1C[C@H](N)[C@H](O)[C@H](C)O1 [ADM, doxorubicin]	70	13	73	7	62	7	69	5	71	6	–
CO[C@@]12[C@H](COC(N)=O)C3=C(C(=O)C(C)=C(N)C3=O)N1C[C@@H]1N[C@@H]12 [MMC, mitomycin C]	72	10	74	12	61	7	73	3	68	5	5.1 ± 0.4

Source: patent publication US5019385A, “Novel lymphopine LK 2 and pharmaceutic compositions containing same” (Kabushiki Kaisha Hayashibara Seibutsu Kagaku Kenkyujo, priority 1984, dated 1991)
